The record followed here is ChEMBL document CHEMBL3860078, “Thioflavones as novel neuroprotective agents” (Bioorg Med Chem, 2016).

What is called IC50 is the concentration that inhibits the measured activity by half.

Calls of active or inactive are those of the source. No cut-off for these calls is given here.

Data set [1] can be described thus: Neuroprotective activity against H2O2-induced oxidative stress in human SH-SY5Y cells assessed as cell viability at 3 uM preincubated for 24 hrs followed by H2O2 addition for 1 hr measured after 17 hrs by MTT assay relative to control. The class given is functional. As to conditions: read-out: Activity. In general terms: Tetrazolium assays rely on reduction of a dye to a coloured formazan, in cell work by metabolically active cells.

Data set [2] has as its target Mitogen-activated protein kinase; ERK1/ERK2 (Homo sapiens) (UniProt P27361+P28482). In words: Induction of ERK1/2 phosphorylation in human SH-SY5Y cells at 3 uM preincubated for 24 hrs followed by H2O2 addition for 1 hr by pathscan sandwich immunoassay. The class given is cell-based.
The next data set deals with SH-SY5Y. The experiment in a line: Induction of AMPKalpha phosphorylation in human SH-SY5Y cells at 3 uM preincubated for 24 hrs followed by H2O2 addition for 1 hr by pathscan sandwich immunoassay. The class given is cell-based.
Data set [3] in a line: Neuroprotective activity in human SH-SY5Y cells assessed as protection against H2O2-induced oxidative stress at 0.3 uM preincubated for 24 hrs followed by H2O2 addition for 1 hr measured after 17 hrs by MTT assay relative to control. The class given is functional, cell-based.
Data set [4] can be described thus: Neurotoxicity against human SH-SY5Y cells assessed as reduction in cell viability at 3 to 10 uM after 24 hrs by MTT assay. It is filed as toxicity, cell-based.
A short description of data set [5]: Metal chelating activity assessed as Fe2+-compound complex fromation at 3 uM incubated for 5 mins in presence of ferrous chloride hexahydrate followed by ferrozine addition measured after 10 mins. The class given is physicochemical.
Data set [6] has as its target Serine/threonine-protein kinase mTOR (Homo sapiens) (UniProt P42345). In words: Induction of mTOR phosphorylation in human SH-SY5Y cells at 3 uM preincubated for 24 hrs followed by H2O2 addition for 1 hr by pathscan sandwich immunoassay. It is filed as cell-based.
Data set [7] is described as follows: Antioxidant activity assessed as DPPH free radical scavenging activity at 3 uM after 30 mins incubation in dark. It is filed as functional. (The DPPH test is a chemical assay of radical scavenging.)
Data set [8] concerns the target T1, Bcl2-associated agonist of cell death (Homo sapiens) (UniProt Q92934).
T1 sequence (whole entry): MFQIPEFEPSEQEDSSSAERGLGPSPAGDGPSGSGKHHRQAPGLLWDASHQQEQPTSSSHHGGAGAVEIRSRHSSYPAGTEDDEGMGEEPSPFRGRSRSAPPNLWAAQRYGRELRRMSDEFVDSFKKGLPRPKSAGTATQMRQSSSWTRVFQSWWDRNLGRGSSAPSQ
In words: Induction of BAD phosphorylation in human SH-SY5Y cells at 3 uM preincubated for 24 hrs followed by H2O2 addition for 1 hr by pathscan sandwich immunoassay. It is filed as cell-based.

For data set [9], the target named is Proline-rich AKT1 substrate 1 (Homo sapiens) (UniProt Q96B36). The experiment in a line: Induction of PRAS40 phosphorylation in human SH-SY5Y cells at 3 uM preincubated for 24 hrs followed by H2O2 addition for 1 hr by pathscan sandwich immunoassay. The class given is cell-based.
Data set [10] can be described thus: Antioxidant activity assessed as DPPH free radical scavenging activity after 30 mins incubation in dark. The class given is functional.
Data set [11] can be described thus: Metal chelating activity assessed as Fe2+-compound complex fromation incubated for 5 mins in presence of ferrous chloride hexahydrate followed by ferrozine addition measured after 10 mins.
A short description of data set [12]: Neurotoxicity against human SH-SY5Y cells assessed as reduction in cell viability at 10 uM after 24 hrs by MTT assay. The class given is toxicity, cell-based.
Data set [13] can be described thus: Antioxidant activity assessed as DPPH free radical scavenging activity after 30 mins incubation in dark by UV-Vis spectrophotometric analysis. The class given is functional.

Mitogen-activated protein kinase; ERK1/ERK2 (Homo sapiens), sequence (P27361 whole entry, looked up): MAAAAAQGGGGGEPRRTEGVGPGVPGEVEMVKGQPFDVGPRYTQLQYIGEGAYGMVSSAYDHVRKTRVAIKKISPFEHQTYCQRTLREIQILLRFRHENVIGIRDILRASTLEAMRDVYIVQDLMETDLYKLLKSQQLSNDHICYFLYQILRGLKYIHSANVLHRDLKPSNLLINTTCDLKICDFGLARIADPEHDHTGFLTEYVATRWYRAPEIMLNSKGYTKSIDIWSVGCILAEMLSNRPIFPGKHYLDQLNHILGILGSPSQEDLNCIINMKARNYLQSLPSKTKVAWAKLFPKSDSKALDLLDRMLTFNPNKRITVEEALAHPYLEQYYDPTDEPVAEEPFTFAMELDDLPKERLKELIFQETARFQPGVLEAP
Mitogen-activated protein kinase; ERK1/ERK2 (Homo sapiens), sequence (P28482 whole entry, looked up): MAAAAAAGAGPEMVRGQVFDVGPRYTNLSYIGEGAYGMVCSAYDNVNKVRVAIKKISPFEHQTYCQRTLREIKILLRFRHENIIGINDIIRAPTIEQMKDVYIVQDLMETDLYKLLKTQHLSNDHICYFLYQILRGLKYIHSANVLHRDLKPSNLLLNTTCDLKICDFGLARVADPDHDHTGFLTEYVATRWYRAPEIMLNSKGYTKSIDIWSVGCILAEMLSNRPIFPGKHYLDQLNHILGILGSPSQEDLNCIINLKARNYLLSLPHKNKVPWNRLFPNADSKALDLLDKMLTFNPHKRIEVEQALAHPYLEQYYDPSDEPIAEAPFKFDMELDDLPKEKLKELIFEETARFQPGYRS

As to `N#Cc1ccc(-c2cc(=S)c3ccc(O)c(O)c3o2)cc1`, the viability at 3 µM in data set [1] came out at 106%. The outcome (in data set [2]; in the data set with SH-SY5Y; in [6]) was Active. For the same molecule, the Activity in data set [3] is > 70%; in data set [4], “Non-Toxic”; in [5], 3.9%; in data set [7] it was 1.3%.
For the molecule `Oc1cc(O)c2c(=S)cc(-c3ccccc3)oc2c1`, the viability at 3 µM in [1] was < 50%.
Same read-out and setting: with `Oc1ccc2c(=S)cc(-c3ccccc3)oc2c1O` the figure was 72.4%.
As to `O=c1cc(-c2ccc(F)cc2)oc2c(O)c(O)ccc12`, the viability at 3 µM in data set [1] came out at 88.8%. Also, the Activity result in data set [4] was “Non-Toxic”.
`N#Cc1ccc(-c2cc(=O)c3ccc(O)c(O)c3o2)cc1`: the viability at 3 µM in [1] is 84.6%.
The same measure, in the same setting: with `Oc1ccc2c(=S)cc(-c3ccco3)oc2c1O` the figure was < 60%.
Take `Oc1ccc2c(=S)cc(-c3ccc(Cl)cc3)oc2c1O`: in data set [1], the viability at 3 µM stood at 107%. Moreover, the outcome (in [2]; in [8]; in data set [9]; with SH-SY5Y; in [6]) was Active. Besides, the Activity in data set [3] was > 70%; in data set [4] it was “Non-Toxic”; in data set [5] it was 5%; in [7], 1.7%.
As to `O=c1cc(-c2cccnc2)oc2c(O)c(O)ccc12`, the viability at 3 µM in [1] is < 60%.
With `O=C1O[C@H]([C@@H](O)CO)C(O)=C1O` [ASCORBIC ACID], in data set [10], the IC50 was determined as 330 µM. Besides, the Activity in [7] amounted to 1.3%.
`Oc1ccc2c(=S)cc(-c3ccc(F)cc3)oc2c1O`: the viability at 3 µM in data set [1] was 97.4%. In data set [4], the Activity result is “Non-Toxic”.
With `O=C(O)CN(CCN(CC(=O)O)CC(=O)O)CC(=O)O` [EDETIC ACID], the concentration for half-maximal inhibition (IC50) in data set [11] is 42 µM. Also, the Activity in data set [5] came to 6.9%.
For the molecule `Oc1ccc2c(=S)cc(-c3cccs3)oc2c1O`, in data set [1], the viability at 3 µM is < 60%.
Turning to `Oc1ccc2c(=S)cc(-c3ccc(Br)cc3)oc2c1O`, the viability at 3 µM in [1] turned out to be 97.8%. Moreover, in data set [8], the result was Active. Besides, the Activity in data set [12] came to 52%; in [5] it was 4.4%; in [7], 1.6%.
Take `O=c1cc(-c2ccco2)oc2c(O)c(O)ccc12`: in data set [1], the viability at 3 µM was < 60%.
Same read-out and setting: with `O=c1cc(-c2cccs2)oc2c(O)c(O)ccc12` the figure was < 60%.
With `Oc1cc(O)c2c(=S)cc(-c3ccc(O)c(O)c3)oc2c1`, in [1], the viability at 3 µM fell in the range of 67.4 to 73%. Further, the Activity result in [4] is “Non-Toxic”.
The corresponding values for `O=c1cc(-c2ccc(Br)cc2)oc2c(O)c(O)ccc12` are 84% and “Non-Toxic”.
In the case of `O=c1cc(-c2ccccc2)oc2c(O)c(O)ccc12` [7,8-DIHYDROXYFLAVONE], the viability at 3 µM in [1] is 96.2 to 97%. Further, the result in [8] was Active. The Activity result was “Non-Toxic” in data set [4], 3.7% in [5] and 1.4% in data set [7]. The IC50 in [13] was found to be 15.5 µM.
Regarding `O=c1cc(-c2ccc(O)c(O)c2)oc2cc(O)cc(O)c12` [LUTEOLIN], the viability at 3 µM in [1] came to 98.3%. Also, the Activity in data set [5] worked out at 3.4%; in data set [7], 1.9%.
In the case of `O=c1cc(-c2ccccc2)oc2cc(O)cc(O)c12` [CHRYSIN], the viability at 3 µM in data set [1] was < 50%.
On the same count and under the same terms, with `Oc1ccc2c(=S)cc(-c3cccnc3)oc2c1O` the figure was < 60%.
On to `O=c1cc(-c2ccc(Cl)cc2)oc2c(O)c(O)ccc12`, for which the viability at 3 µM in data set [1] is 93.4%. Also, the Activity in data set [5] was determined as 3.7%; in data set [7], 1.4%. Also, the result in data set [6] was Active.
